Where “and” joins values, the source holds several entries; their conditions need not be identical. Equal entries are not always repeated. Calls of active or inactive are those of the source. No cut-off for these calls is given here.
Experiments:
[1] = Compound was tested for relative activity against the cold-induced disassembly of microtubules with respect to rhazinilam (IC50=2*10e-6M); IA means Inactive; assay type: functional
[2] = Inhibitory concentration of compound was determined against KB cells; IA means Inactive; assay type: functional, cell-based, Homo sapiens
[3] = Relative activity against the cold-induced disassembly of microtubules with respect to rhazinilam (IC50=2*10e-6M).; assay type: functional
[4] = Compound was tested for relative activity against the cold-induced disassembly of microtubules with respect to rhazinilam (IC50=2*10e-6M); Experimemt 2; assay type: functional
[5] = Compound was tested for relative activity against the cold-induced disassembly of microtubules with respect to rhazinilam (IC50=2*10e-6M); Experiment 1; assay type: functional
[6] = Inhibitory concentration of compound was determined against KB cells; assay type: functional, cell-based, Homo sapiens
[7] = Compound was tested for relative activity against the cold-induced disassembly of microtubules; assay type: functional
[8] = Compound was tested for relative activity against the cold-induced disassembly of microtubules; IA means Inactive; assay type: functional
[9] = Inhibitory concentration of compound was determined against disassembly of microtubules; assay type: functional

SMILES	IC50 [6]	Ratio [3]	other results
CC[C@]12CCCn3ccc(c31)-c1cc(NC(C)=O)ccc1NC(=O)CC2	–	–	Ratio [1]: inactive; IC50 [2]: Not Active
CC[C@]12CCCn3ccc(c31)-c1ccccc1N(CC(=O)OCc1ccccc1)C(=O)CC2	–	80	IC50 [2]: Not Active
CC[C@@]12CCCN3CC[C@@]4(C(=Nc5ccccc54)CC1)[C@H]32	–	–	Ratio [1]: inactive
CC[C@]12CCCn3c(C=O)cc(c31)-c1ccccc1NC(=O)CC2	–	6	–
CC[C@]12CCCn3ccc(c31)-c1ccccc1N(CC(=O)O)C(=O)CC2	–	80	IC50 [2]: Not Active
CC[C@]12CCCn3c(C(=O)C(F)(F)F)cc(c31)-c1ccccc1NC(=O)CC2	15 µM	4	–
CC[C@]12CCCn3c(C(=O)C(Cl)(Cl)Cl)cc(c31)-c1ccccc1NC(=O)CC2	25 µM	8	–
CC[C@]12CCCn3c(C(=O)OCc4ccc(OC)c(OC)c4OC)cc(c31)-c1ccccc1NC(=O)CC2	20 µM	7	–
CC[C@]12CCCn3ccc(c31)-c1cc(Br)ccc1NC(=O)CC2	–	100	IC50 [2]: Not Active
CC[C@@]12CCCN3CC=C(c4ccccc4NC(=O)CC1)C32 (stereo not given in full)	–	–	Ratio [1]: inactive
CC[C@]12CCCn3c(C=O)c(C=O)c(c31)-c1ccccc1NC(=O)CC2	–	–	Ratio [1]: inactive
CC[C@]1(CCC(=O)O)CCCn2ccc(-c3ccccc3N)c21	–	–	Ratio [1]: inactive
CC[C@@]12CCCN(C(C)=O)c3ccccc3-c3ccn(c31)CCC2	–	80	IC50 [2]: Not Active
CC[C@@]12CCCN3C(=O)C=C(c4ccccc4NC(=O)CC1)[C@]32O	–	–	Ratio [1]: inactive
CC[C@]12CCCn3ccc(c31)-c1ccccc1N(C(=O)OC(C)(C)C)C(=O)CC2	–	80	IC50 [2]: Not Active
CC[C@@]12CCCN(C(=O)OC(C)(C)C)c3ccccc3-c3ccn(c31)CCC2	10 µM	80	–

Second part, led by results:

IC50 [6]	SMILES	Ratio [3]	other results
75 µM	CC[C@]12CCCn3c(C(=O)O)cc(c31)-c1ccccc1NC(=O)CC2	–	Ratio [4]: 2 and 3; Ratio [5]: 5
0.5 µM	CC[C@]12CCCn3ccc(c31)-c1ccccc1NC(=O)CC2 [RHAZINILAM]	–	Ratio [7]: 1; Ratio [8]: inactive; IC50 [9]: 2 µM
4 µM	CC[C@]12CCCn3c(C(=O)OC)cc(c31)-c1ccccc1NC(=O)CC2	5	–
3 µM	CC[C@@]12CCC(=O)Nc3ccccc3-c3ccn(c31)C(O)CC2 (stereo not given in full)	15	–
60 µM	CC[C@]12CCCn3ccc(c31)-c1ccccc1N(C)C(=O)CC2	4	–
10 µM	CC[C@]12CCCn3ccc(c31)-c1ccccc1/N=C(/S)CC2	50	–
1 µM	CC[C@@]12CCCNc3ccccc3-c3ccn(c31)CCC2	20	–
3 µM	CC[C@@]12CCC(=O)Nc3ccccc3-c3ccn(c31)C(=O)CC2 [RHAZINICINE]	10	–
